Measurements taken from the supplement of paper PMC11061612.

Experiments:
Experiment in all cases: Bliss excess, mean over the matrix (fraction); higher = more synergy
[1] = test system: CAL-39 (Other Solid Carcinomas)
Procedure, shortened: (§1)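 After 24 hours at 37°C and 5% CO2 in 1536-well plates, cells in DMEM/F12 or RPMI plus 10% FBS received two-drug dose matrices for 72 hours. Viability came from CellTiter-Glo 2.0 luminescence and was scaled as inhibition, anchored at 0 by vehicle wells and at 1 by blank wells. Combination Emax is taken as the second-highest inhibition in the matrix, and Bliss excess as the observed combination effect less EA + EB − EA·EB, with EA and EB the single-agent effects.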

D-392MG (Glioblastoma) = test system: D-392MG (Glioblastoma)
Procedure, shortened: as §1

[2] = test system: EFM-192A (Breast Carcinoma)
Procedure, shortened: as §1

[3] = test system: ETK-1 (Biliary Tract Carcinoma)
Procedure, shortened: as §1

EW-22 (Ewing's Sarcoma) = test system: EW-22 (Ewing's Sarcoma)
Procedure, shortened: as §1

[4] = test system: GDM-1 (Acute Myeloid Leukemia)
Procedure, shortened: as §1

H4 (Low Grade Glioma) = test system: H4 (Low Grade Glioma)
Procedure, shortened: as §1

HuO9 (Osteosarcoma) = test system: HuO9 (Osteosarcoma)
Procedure, shortened: as §1

[5] = test system: KG-1 (Acute Myeloid Leukemia)
Procedure, shortened: as §1

[6] = test system: MEG-01 (Chronic Myelogenous Leukemia)
Procedure, shortened: as §1

MSTO-211H (Mesothelioma) = test system: MSTO-211H (Mesothelioma)
Procedure, shortened: as §1

[7] = test system: P31-FUJ (Acute Myeloid Leukemia)
Procedure, shortened: as §1

[8] = test system: RCC10RGB (Kidney Carcinoma)
Procedure, shortened: as §1

[9] = test system: SK-LMS-1 (Other Solid Carcinomas)
Procedure, shortened: as §1

SK-MEL-1 (Melanoma) = test system: SK-MEL-1 (Melanoma)
Procedure, shortened: as §1

[10] = test system: SLVL (B-Cell Non-Hodgkin's Lymphoma)
Procedure, shortened: as §1

[11] = test system: SNG-M (Endometrial Carcinoma)
Procedure, shortened: as §1

[12] = test system: SNU-61 (Colorectal Carcinoma)
Procedure, shortened: as §1

[13] = test system: SW48 (Colorectal Carcinoma)
Procedure, shortened: as §1

[14] = test system: TYK-nu (Ovarian Carcinoma)
Procedure, shortened: as §1

Structure (SMILES)	Bliss excess [1]	Bliss excess (D-392MG (Glioblastoma))	Bliss excess [2]	Bliss excess [3]	Bliss excess (EW-22 (Ewing's Sarcoma))	Bliss excess [4]	Bliss excess (H4 (Low Grade Glioma))	Bliss excess (HuO9 (Osteosarcoma))	Bliss excess [5]	Bliss excess [6]	Bliss excess (MSTO-211H (Mesothelioma))	Bliss excess [7]	Bliss excess [8]	Bliss excess [9]	Bliss excess (SK-MEL-1 (Melanoma))	Bliss excess [10]	Bliss excess [11]	Bliss excess [12]	Bliss excess [13]	Bliss excess [14]
COc1nnc2ccc(N3CCC(c4ccc(OCCN5CCN(C)C(=O)[C@H]5C)cc4)CC3)nn12 [AZD5153] + Cn1cnc2c(F)c(Nc3ccc(Br)cc3Cl)c(C(=O)NOCCO)cc21 [Selumetinib] (first compound max 1 µM, 7x7, partner max 10 µM)	-0.0175	0.0081	-0.0096	-0.0451	-0.0668	-0.0266	-0.0184	0.0052	0.024	-0.0222	0.007	0.0339	-0.114	0.0383	0.0933	-0.0385	0.0042	0.0407	0.0619	-0.044
NC1(C(=O)N[C@@H](CCO)c2ccc(Cl)cc2)CCN(c2ncnc3[nH]ccc23)CC1 [Capivasertib] + Cn1cnc2c(F)c(Nc3ccc(Br)cc3Cl)c(C(=O)NOCCO)cc21 [Selumetinib] (first compound max 10 µM, 7x7, partner max 10 µM)	-0.019	-0.0202	-0.0326	0.0555	-0.0255	0.072	-0.0307	-0.0116	-0.0045	0.0548	0.0663	0.0376	-0.0305	0.0883	0.0465	-0.0251	0.0648	0.025	-0.0453	0.0219
CN(CCO)CC[C@H](CSc1ccccc1)Nc1ccc(S(=O)(=O)NC(=O)c2ccc(N3CCC([C@@H](O)c4ccccc4-c4ccc(Cl)cc4)CC3)cc2)cc1S(=O)(=O)C(F)(F)F [AZD4320] + C1CN(CCC1(C(=O)N[C@@H](CCO)C2=CC=C(C=C2)Cl)N)C3=NC=NC4=C3C=CN4 [Capivasertib] (first compound max 1 µM, 7x7, partner max 3 µM)	-0.0296	-0.0649	-0.0269	-0.0305	-0.0341	-0.0206	-0.0397	0.0355	0.0226	-0.0223	-0.0162	0.0452	-0.0576	-0.0225	-0.0281	0.0563	-0.054	-0.038	0.0148	-0.038
Cc1c2c(nn1C)CSCc1cc(n(C)n1)CSc1cc(c3ccccc3c1)OCCCc1c(C(=O)O)n(C)c3c-2c(Cl)ccc13 [AZD5991] + C[C@@H]1COCCN1C2=NC(=NC(=C2)C3(CC3)[S@](=N)(=O)C)C4=C5C=CNC5=NC=C4 [AZD6738] (first compound max 1 µM, 7x7, partner max 10 µM)	-0.0411	-0.0053	0.0335	0.0015	0.0236	0.0863	0.0274	0.0259	0.0155	-0.0227	0.0032	-0.0033	0.0332	-0.0471	-0.0255	0.031	0.0516	0.0435	-0.0259	-0.0265
Cc1c2c(nn1C)CSCc1cc(n(C)n1)CSc1cc(c3ccccc3c1)OCCCc1c(C(=O)O)n(C)c3c-2c(Cl)ccc13 [AZD5991] + C=CCn1c(=O)c2cnc(Nc3ccc(N4CCN(C)CC4)cc3)nc2n1-c1cccc(C(C)(C)O)n1 [AZD1775] (first compound max 1 µM, partner max 1 µM)	0.0957	0.116	-0.0297	0.0386	0.0756	0.0207	-0.042	-0.0292	0.0391	-0.0401	0.0284	-0.0127	-0.0182	-0.0388	-0.0137	-0.0346	-0.0456	-0.0118	-0.0318	0.0279
CC1(C)CCC(CN2CCN(c3ccc(C(=O)NS(=O)(=O)c4ccc(NCC5CCOCC5)c([N+](=O)[O-])c4)c(Oc4cnc5[nH]ccc5c4)c3)CC2)=C(c2ccc(Cl)cc2)C1 [Venetoclax] + C[C@@H](Nc1cc(F)cc(F)c1)c1cc(C(=O)N(C)C)cc2c(=O)cc(N3CCOCC3)oc12 [AZD8186] (first compound max 1 µM, 7x7, partner max 3 µM)	-0.106	-0.061	-0.0501	-0.0284	0.0333	0.15	-0.0302	0.0776	0.114	-0.0492	-0.0052	0.0178	-0.0866	-0.014	-0.0239	0.0395	-0.0551	-0.0314	-0.0278	-0.0103
Cn1cnc2c(F)c(Nc3ccc(Br)cc3Cl)c(C(=O)NOCCO)cc21 [Selumetinib] + CC(C)n1c(=O)n(C)c2cnc3cc(F)c(-c4ccc(OCCCN5CCCCC5)nc4)cc3c21 [AZD1390] (first compound max 10 µM, 7x7, partner max 0.3 µM)	0.0025	-0.02	-0.0325	-0.0432	-0.0304	-0.0523	-0.0503	0.0143	0.0053	0.0034	-0.0367	0.0398	-0.0004	-0.0429	-0.0378	-0.0557	-0.0348	0.0043	-0.0561	-0.0523
CN(CCO)CC[C@H](CSc1ccccc1)Nc1ccc(S(=O)(=O)NC(=O)c2ccc(N3CCC([C@@H](O)c4ccccc4-c4ccc(Cl)cc4)CC3)cc2)cc1S(=O)(=O)C(F)(F)F [AZD4320] + Cc1cc2ncnn2cc1Nc1ncc2c(n1)n(C1CCOCC1)c(=O)n2C [AZD7648] (first compound max 1 µM, 7x7, partner max 10 µM)	-0.03	-0.0614	-0.0265	-0.0639	-0.0165	-0.0041	-0.0355	0.0482	0.0526	0.0304	-0.0237	-0.0229	-0.077	0.001	-0.025	0.0119	-0.0007	-0.0254	0.0314	-0.0405
Cc1c2c(nn1C)CSCc1cc(n(C)n1)CSc1cc(c3ccccc3c1)OCCCc1c(C(=O)O)n(C)c3c-2c(Cl)ccc13 [AZD5991] + Cc1cc2ncnn2cc1Nc1ncc2c(n1)n(C1CCOCC1)c(=O)n2C [AZD7648] (first compound max 1 µM, 7x7, partner max 10 µM)	-0.0466	-0.0664	-0.0394	-0.0466	-0.041	-0.0295	0.0222	-0.018	-0.0136	-0.0157	-0.025	0.0055	0.0033	-0.0392	-0.0152	0.0016	0.0071	-0.0446	-0.036	-0.0539
CCN(CCO)CCCOc1ccc2c(Nc3cc(CC(=O)Nc4cccc(F)c4)[nH]n3)ncnc2c1 [AZD2811] + O=C(c1cc(Cc2n[nH]c(=O)c3ccccc23)ccc1F)N1CCN(C(=O)C2CC2)CC1 [Olaparib] (first compound max 1 µM, 7x7, partner max 10 µM)	0.0017	-0.0695	0.0138	0.0049	-0.0612	-0.0709	-0.0046	0.0215	0.0382	-0.0628	0.0178	-0.0895	-0.0004	0.0076	-0.0325	-0.001	-0.018	-0.0184	0.0145	-0.0152
C[C@@H](c1ccc2nccn2c1)n1nnc2ncc(-c3cnn(C)c3)nc21 [Savolitinib] + Cc1c2c(nn1C)CSCc1cc(n(C)n1)CSc1cc(c3ccccc3c1)OCCCc1c(C(=O)O)n(C)c3c-2c(Cl)ccc13 [AZD5991] (first compound max 1 µM, 7x7, partner max 1 µM)	-0.0722	-0.001	-0.0499	-0.0544	-0.0595	-0.0004	0.0076	-0.0416	-0.0383	-0.0308	-0.0337	-0.049	-0.0371	0.0027	-0.0235	-0.0946	0.0124	-0.0429	-0.0232	-0.0393
Cc1c2c(nn1C)CSCc1cc(n(C)n1)CSc1cc(c3ccccc3c1)OCCCc1c(C(=O)O)n(C)c3c-2c(Cl)ccc13 [AZD5991] + C1CN(CCC1(C(=O)N[C@@H](CCO)C2=CC=C(C=C2)Cl)N)C3=NC=NC4=C3C=CN4 [Capivasertib] (first compound max 1 µM, 7x7, partner max 3 µM)	-0.0203	0.0557	0.0579	-0.0525	0.0007	0.0461	0.0378	0.0085	-0.0164	-0.0122	-0.0066	0.0182	-0.0085	0.0054	-0.0373	0.004	-0.0065	-0.0174	-0.034	0.0172
Cc1cc2ncnn2cc1Nc1ncc2c(n1)n(C1CCOCC1)c(=O)n2C [AZD7648] + O=C(c1cc(Cc2n[nH]c(=O)c3ccccc23)ccc1F)N1CCN(C(=O)C2CC2)CC1 [Olaparib] (first compound max 10 µM, 7x7, partner max 10 µM)	-0.0323	-0.0456	-0.0533	0.0223	-0.0664	-0.011	0.0404	0.0105	-0.0312	-0.0086	-0.0143	-0.0511	-0.0619	-0.0295	0.0039	-0.0027	-0.0471	-0.0443	-0.031	-0.0819
COc1cccc(OCCCN)c1-c1cc(Nc2cnc(C#N)cn2)n[nH]1 [Prexasertib] + O=C(c1cc(Cc2n[nH]c(=O)c3ccccc23)ccc1F)N1CCN(C(=O)C2CC2)CC1 [Olaparib] (first compound max 1 µM, 7x7, partner max 10 µM)	-0.008	-0.0698	-0.0365	0.0573	-0.0447	-0.0516	-0.0306	0.0553	-0.0343	-0.0981	-0.0597	-0.0141	-0.0784	-0.0676	-0.0435	-0.0051	-0.124	-0.0407	-0.0795	-0.0934
